# Values of other authors, collected in PMC11865562 (Scientific Reports, 2025).
# Test system: P-gp
smiles,measurement,value
"CNC(=O)c1ccc(-c2cnc3ncc(Cc4ccc5ncccc5c4)n3n2)cc1F [Capmatinib, capmatinib]",P-gp substrate (reported),P-gp substrate
